According to article PMC2829555, “The zebrafish genome encodes the largest vertebrate repertoire of functional aquaporins with dual paralogy and substrate specificities similar to mammals” (BMC Evolutionary Biology, 2010):

Assays:
Test in all cases: radiolabelled solute uptake in cRNA-injected oocytes
Format in all cases: cell-based
Conditions in all cases: MBS buffer, 1 mM solute, 10 min, room temperature; labelled compound
[1] = target: T1, DrAqp7 (Danio rerio, UniProt D3TZW4)
T1 construct: gene aqp7; full-length cDNA in pT7Ts, untagged, cRNA-injected Xenopus laevis oocytes
T1 sequence (D3TZW4 1-303): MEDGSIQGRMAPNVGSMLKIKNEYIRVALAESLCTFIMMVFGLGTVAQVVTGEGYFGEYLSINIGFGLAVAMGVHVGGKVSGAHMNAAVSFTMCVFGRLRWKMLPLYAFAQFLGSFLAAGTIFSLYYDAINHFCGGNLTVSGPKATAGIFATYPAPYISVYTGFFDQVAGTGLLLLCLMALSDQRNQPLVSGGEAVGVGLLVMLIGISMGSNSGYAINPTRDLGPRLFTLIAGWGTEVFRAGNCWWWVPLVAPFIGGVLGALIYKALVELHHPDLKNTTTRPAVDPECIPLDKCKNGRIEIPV

[2] = target: T2, DrAqp9a (Danio rerio, UniProt Q498W2)
T2 construct: gene aqp9a; full-length cDNA in pT7Ts, untagged, cRNA-injected Xenopus laevis oocytes
T2 sequence (Q498W2 1-294): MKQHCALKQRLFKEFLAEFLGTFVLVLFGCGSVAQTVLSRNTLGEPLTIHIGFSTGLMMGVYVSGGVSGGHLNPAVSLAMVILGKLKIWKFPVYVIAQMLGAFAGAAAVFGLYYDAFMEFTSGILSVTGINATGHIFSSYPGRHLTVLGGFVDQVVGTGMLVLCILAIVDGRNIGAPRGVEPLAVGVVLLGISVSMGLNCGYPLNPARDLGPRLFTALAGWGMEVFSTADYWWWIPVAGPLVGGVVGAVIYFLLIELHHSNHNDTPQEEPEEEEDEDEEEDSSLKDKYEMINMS

[3] = target: T3, DrAqp10b (Danio rerio, UniProt Q1L8T0)
T3 construct: gene aqp10b; full-length cDNA in pT7Ts, untagged, cRNA-injected Xenopus laevis oocytes
T3 sequence (Q1L8T0 1-276): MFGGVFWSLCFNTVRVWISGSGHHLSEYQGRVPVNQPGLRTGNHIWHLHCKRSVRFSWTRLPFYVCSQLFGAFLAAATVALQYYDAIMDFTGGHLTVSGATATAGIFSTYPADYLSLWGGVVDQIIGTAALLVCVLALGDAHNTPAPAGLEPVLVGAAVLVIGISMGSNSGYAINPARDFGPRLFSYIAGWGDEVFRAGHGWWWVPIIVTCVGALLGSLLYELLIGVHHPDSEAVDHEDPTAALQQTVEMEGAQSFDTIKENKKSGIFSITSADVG

[4] = target: T4, DrAqp9b (Danio rerio, UniProt D5FFZ1)
T4 construct: gene aqp9b; full-length cDNA in pT7Ts, untagged, cRNA-injected Xenopus laevis oocytes; FJ655387 is printed for both 9a and 9b
T4 sequence (D5FFZ1 1-291): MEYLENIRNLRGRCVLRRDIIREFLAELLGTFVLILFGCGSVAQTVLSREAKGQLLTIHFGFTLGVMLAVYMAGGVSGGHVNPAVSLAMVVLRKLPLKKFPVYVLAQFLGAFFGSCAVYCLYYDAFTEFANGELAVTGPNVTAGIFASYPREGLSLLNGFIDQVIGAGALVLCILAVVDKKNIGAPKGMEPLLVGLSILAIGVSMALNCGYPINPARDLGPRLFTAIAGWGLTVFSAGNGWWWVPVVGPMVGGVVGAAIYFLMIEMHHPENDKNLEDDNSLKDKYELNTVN

[5] = target: T5, DrAqp3a (Danio rerio, UniProt Q803U6)
T5 construct: gene aqp3a; full-length cDNA in pT7Ts, untagged, cRNA-injected Xenopus laevis oocytes
T5 sequence (Q803U6 1-296): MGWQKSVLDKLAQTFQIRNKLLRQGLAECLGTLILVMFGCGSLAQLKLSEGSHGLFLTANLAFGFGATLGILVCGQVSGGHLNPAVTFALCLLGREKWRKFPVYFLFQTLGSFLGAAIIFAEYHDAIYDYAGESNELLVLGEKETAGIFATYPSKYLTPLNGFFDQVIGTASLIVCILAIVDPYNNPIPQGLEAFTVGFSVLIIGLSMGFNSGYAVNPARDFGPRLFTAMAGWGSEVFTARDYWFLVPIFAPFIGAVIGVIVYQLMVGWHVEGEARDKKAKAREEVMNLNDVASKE

[6] = target: T6, DrAqp3b (Danio rerio, UniProt D3TI80)
T6 construct: gene aqp3b; full-length cDNA in pT7Ts, untagged, cRNA-injected Xenopus laevis oocytes
T6 sequence (D3TI80 1-299): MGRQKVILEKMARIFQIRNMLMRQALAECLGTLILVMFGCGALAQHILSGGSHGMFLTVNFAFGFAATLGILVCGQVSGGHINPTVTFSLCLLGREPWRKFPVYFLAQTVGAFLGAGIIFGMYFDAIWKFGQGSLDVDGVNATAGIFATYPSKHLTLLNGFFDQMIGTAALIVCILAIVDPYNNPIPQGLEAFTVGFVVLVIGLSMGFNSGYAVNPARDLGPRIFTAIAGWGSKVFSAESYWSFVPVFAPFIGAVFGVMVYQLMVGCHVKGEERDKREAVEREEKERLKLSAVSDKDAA

[7] = target: T7, DrAqp10a (Danio rerio, UniProt A0A8M1N0C8)
T7 construct: gene aqp10a; full-length cDNA in pT7Ts, untagged, cRNA-injected Xenopus laevis oocytes
T7 sequence (A0A8M1N0C8 1-293): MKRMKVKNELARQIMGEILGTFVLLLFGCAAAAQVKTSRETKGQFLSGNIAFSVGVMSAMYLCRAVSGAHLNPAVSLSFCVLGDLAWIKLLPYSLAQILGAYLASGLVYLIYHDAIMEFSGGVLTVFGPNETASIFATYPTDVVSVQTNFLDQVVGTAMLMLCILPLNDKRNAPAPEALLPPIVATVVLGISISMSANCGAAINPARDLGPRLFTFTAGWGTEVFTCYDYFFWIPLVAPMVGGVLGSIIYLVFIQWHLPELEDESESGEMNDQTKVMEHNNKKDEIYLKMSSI

[8] = target: T8, DrAqp8aa (Danio rerio, UniProt Q66I64)
T8 construct: gene aqp8a.1; full-length cDNA in pT7Ts, untagged, cRNA-injected Xenopus laevis oocytes
T8 sequence (Q66I64 1-260): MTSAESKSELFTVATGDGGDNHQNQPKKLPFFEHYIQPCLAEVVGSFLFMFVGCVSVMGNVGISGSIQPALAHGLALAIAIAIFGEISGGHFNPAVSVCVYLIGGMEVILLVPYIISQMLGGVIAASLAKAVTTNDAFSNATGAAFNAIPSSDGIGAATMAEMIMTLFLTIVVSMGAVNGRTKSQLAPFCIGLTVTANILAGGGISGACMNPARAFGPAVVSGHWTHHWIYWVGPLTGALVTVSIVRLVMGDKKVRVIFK

[9] = target: T9, DrAqp8ab (Danio rerio, UniProt A0A8N1TQ94)
T9 construct: gene aqp8a.2; full-length cDNA in pT7Ts, untagged, cRNA-injected Xenopus laevis oocytes
T9 sequence (A0A8N1TQ94 1-257): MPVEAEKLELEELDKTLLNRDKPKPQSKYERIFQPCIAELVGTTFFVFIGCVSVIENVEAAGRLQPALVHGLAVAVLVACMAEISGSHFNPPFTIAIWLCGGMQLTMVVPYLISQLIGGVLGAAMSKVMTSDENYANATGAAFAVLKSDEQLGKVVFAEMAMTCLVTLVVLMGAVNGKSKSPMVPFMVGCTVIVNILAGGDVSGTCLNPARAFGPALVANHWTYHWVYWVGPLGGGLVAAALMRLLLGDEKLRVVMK

| Compound | radiolabelled solute uptake in cRNA-injected oocytes [1] | radiolabelled solute uptake in cRNA-injected oocytes [2] | radiolabelled solute uptake in cRNA-injected oocytes [3] | radiolabelled solute uptake in cRNA-injected oocytes [4] | radiolabelled solute uptake in cRNA-injected oocytes [5] | radiolabelled solute uptake in cRNA-injected oocytes [6] | radiolabelled solute uptake in cRNA-injected oocytes [7] | radiolabelled solute uptake in cRNA-injected oocytes [8] | radiolabelled solute uptake in cRNA-injected oocytes [9] |
| --- | --- | --- | --- | --- | --- | --- | --- | --- | --- |
| OCC(O)CO [glycerol] | draqp3a, -3b, -7, -9a, -9b, -10a and -10b were also permeable to glycerol and urea | draqp3a, -3b, -7, -9a, -9b, -10a and -10b were also permeable to glycerol and urea | draqp3a, -3b, -7, -9a, -9b, -10a and -10b were also permeable to glycerol and urea | draqp3a, -3b, -7, -9a, -9b, -10a and -10b were also permeable to glycerol and urea | draqp3a, -3b, -7, -9a, -9b, -10a and -10b were also permeable to glycerol and urea | draqp3a, -3b, -7, -9a, -9b, -10a and -10b were also permeable to glycerol and urea | draqp3a, -3b, -7, -9a, -9b, -10a and -10b were also permeable to glycerol and urea |  |  |
| NC(N)=O [urea] | draqp3a, -3b, -7, -9a, -9b, -10a and -10b were also permeable to glycerol and urea | draqp3a, -3b, -7, -9a, -9b, -10a and -10b were also permeable to glycerol and urea | in the case of draqp10b urea permeability was low | draqp3a, -3b, -7, -9a, -9b, -10a and -10b were also permeable to glycerol and urea | draqp3a, -3b, -7, -9a, -9b, -10a and -10b were also permeable to glycerol and urea | draqp3a, -3b, -7, -9a, -9b, -10a and -10b were also permeable to glycerol and urea | draqp3a, -3b, -7, -9a, -9b, -10a and -10b were also permeable to glycerol and urea | Oocytes expressing draqp8aa or -8ab were permeable to water and urea, but not glycerol | Oocytes expressing draqp8aa or -8ab were permeable to water and urea, but not glycerol |
